From patent US10738028B2, “Spiro three-membered ring, spiro five-membered ring peptide deformylase inhibitor and use thereof in antibacteria and anti-tumor” (priority 2016, dated 2020)

Columns and labels:
[1] = tested on: HCT-116 colorectal cancer cell line; test: CCK-8 proliferation inhibition; assay type: cell-based; conditions: Homo sapiens, HCT-116, 72 h, read-out: HCT116 inhibition rate/%
Summary of the method: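 Growth inhibition is read by CCK-8 (1:10 dilution) after 72 h of compound exposure. HCT-116 cells grow in McCoy's 5A containing 10% newborn bovine serum at 2000 cells/well, with 1‰ DMSO as vehicle control.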

[2] = tested on: methemoglobin in blood samples of three healthy volunteers; test: Toxicity on methemoglobin in vitro (whole blood with S9 and NADPH, absorbance at 630 nm); assay type: cell-based, human
Method: Because PDF inhibitors such as LBM415 and GSK1322322 can produce active species such as aromatic hydroxylamine and aromatic hydrazines in metabolic process, and cause human methemoglobinemia. To this end, continuous wavelength method was adopted in this invention to scan the absorption spectrum of blood samples in the wavelength range of 500 to 700 nm in the ultraviolet-visible spectrophotometer, and the contents of methemoglobin in blood samples of three healthy volunteers were calculated, after being effected by the synthesized compounds.
Experimental materials: Nicotinamide adenine dinucleotide phosphate (NADPH) reduction system: glucose-6-disodium phosphate, nicotinamide adenine dinucleoside phosphate and glucose-6-phosphate dehydrogenase (purchased from Shanghai yuanye Bio-Technology Co., Ltd) were added to 1 mL of phosphate buffer solution (PBS, pH 7.4), and the mixture was shaked in a shaker type water bath at 37° C. for 10 min, and then cooled to 0° C. Mixed human hepatocytes fraction S9 was purchased from Xenotech (20 mg S9 protein/1 mL suspension medium). Compounds were prepared to stock solution at a concentration of 50 mM, which was stored at −20° C. for use. Dapsone was used as positive control experimental reagent, which was purchased from Sigma Aldrich. 1% w/v triton X-100 was self-prepared. Blood samples were collected using Vacutainer tubes containing EDTA anticoagulants (BD, Franklin Lakes, USA), which were sampled from three healthy volunteers and used immediately after sampling.
Preparation of incubation system for blood samples and drugs: 250 μL of incubation system was consist of 220 μL of whole blood, 25 μL of S9 (final concentration: 2 mg S9 protein/mL incubation solution), 2.5 μL of NADPH form system (final concentration: 10 mM G-6-P, 1 mM NADP, 7.5 Units/mL) and 2.5 μL of stock solution of a compound (final concentration 500 μM). […] of incubation system was placed in an Eppendorf tube and incubated for 5 hours at 37° C. in water bath.
Determination of the content of methemoglobin: 60 μL of an incubated sample was taken and lysed with 3.0 mL of 1% Triton X-100. The content of methemoglobin (MetHb) was measured by an ultraviolet-visible spectrophotometer, with the Triton X-100 solution used as blank control. A sample was placed in a cuvette, 1 minute later, the spectrums of the sample in the wavelength range from 500 nm to 700 nm were recorded. The sample was added with 2 mg of potassium ferricyanide, and was allowed to stay stationary for 2 minutes for completely oxidization of ferrous iron in the sample, and standard spectrum of methemoglobin with saturated potassium ferricyanide. The percentage of methemoglobin formation (MetHb %) was obtained by the ratio of absorbance at 630 nm. MetHb %=(A′−AB′)/AM′, wherein, A′ was the total absorbance of the sample at 630 nm, AB′ was the base absorbance of the reduced blood in the sample at 630 nm, and AM′ was the absorbance of oxidized blood with saturated potassium ferricyanide at 630 nm.

In the case of CCCC[C@H](CN(O)C=O)C(=O)N1CC2(CC2)C[C@H]1C(=O)Nc1cccc(-c2cccnc2)c1 [Example 7, (S)-5-((R)-2-((N-hydroxyformamido)methyl)hexylcarbonyl)-N-(3-(pyridin-3-yl)phenyl)-5-5-azaspiro[2.4]heptane-6-amide], the inhibition at 30 µM [1] was 23%, the “MetHb % (n = 3)” value ([2]; 500 μM compound, whole blood + S9 + NADPH, 5 hours at 37° C.) was 2.24 ± 0.05% and the “probability of methemoglobin formation in blood compared with the control drugs LBM415 and GSK1322322” value ([2]; toxicity test in vitro, in words) was “lower probability of methemoglobin formation in blood”.
